Laboratory results: US6310091A, “Fungicidal saponin, CAY-1, and isolation thereof from Capsium species fruit” (The United States of America as represented by the …, priority 2000, dated 2001)
Where “and” joins values, the source holds several entries; their conditions need not be identical. Identical values can stand only once. Like-named read-outs stand apart in the source and are kept apart here.

Tests used:
Assay type in all cases: cell-based
Aspergillus niger = assay: Fungicidal bioassay on nongerminated and germinating conidia of A. niger; settings: for activity at 5 µM / activity at 10 µM / activity at 15 µM / activity at 20 µM / activity at 1 µM / activity at 2.5 µM: read-out: Percent of Mean Control
Protocol: 1. Filamentous fungi. Filamentous fungi used in bioassays included Aspergillus flavus, A. fumigatus, A. niger, A. parasiticus and Fusarium oxysporum. The fungicidal properties of CAY-1 for the nongerminated and germinating conidia of these fungi were determined separately as described by De Lucca et al. [Med. Mycol., 36:291-298 (1998)] and De Lucca et al. [Antimicrob. Agents Chemother. 43:371-373 (1999)]. […] Two separate experiments were conducted in each medium (n=8 per medium).
A suspension of the aforementioned fungi were prepared separately in the appropriate medium. Conidia (10^4 conidia/ml) were used immediately for the nongerminated conidial assays while conidia (10^5 conidia/ml) were incubated for 7.5 hours at 30° C. to obtain germinating conidia. Serial dilutions of CAY-1 were prepared in the appropriate medium (totaling 225 μl) to which was added 25 μl of the conidial suspensions. The control consisted of 225 μl of medium and 25 μl of the conidial suspension. After mixing, the samples were incubated for 30 min (30° C.). Samples were then spread on potato dextrose agar plates which were incubated at 30° C. for 24 hours. Colonies were then enumerated.
Statistical analyses. ANOVA analyses on ranks for nonparametric data were performed for the bioassays described in this example.

[1] = tested on: A549 lung carcinoma cells; assay: Mammalian cytotoxicity, A549 lung carcinoma cells (ATP content); settings: at concentrations effective against the fungi and yeast
Protocol: 2. A549 lung carcinoma cells. Toxicity of CAY-1 was tested by exposing the cells to CAY-1 for 24, 48, and 72 hrs. Antimycin A was used as a positive control. Viability was assessed by measurement of the ATP content in duplicate wells with luciferin-luciferase monitoring reagent [Cushion et al., Antimicrob. Agents Chemother., 1997, 41:379-384].

Pneumocystis carinii = assay: Effect on Pneumocystis carinii viability (ATP-driven bioluminescent assay)
Protocol: 3. Pneumocystis carinii. The effect of CAY-1 on Pneumocystis carinii was determined as described previously [Cushion et al., Antimicrob. Agents Chemother., 1997, 41:379-384, herein incorporated by reference]. This assay is based on an ATP-driven bioluminescent reaction and was used to determine the concentration of CAY-1 which decreased the P. carinii ATP pools.

Work on CC1CCC2(OC1)OC1CC3C4CCC5CC(OC6OC(CO)C(OC7OC(CO)C(O)C(OC8OC(CO)C(O)C(OC9OC(CO)C(O)C(O)C9O)C8O)C7OC7OC(CO)C(O)C(O)C7O)C(O)C6O)C(O)CC5(C)C4CCC3(C)C1C2C (centres unmarked) [CAY-1] yielded an activity at 5 µM (Aspergillus niger; Aspergillus niger, 0.5 h, germinated, RPMI-1640, 5.0 μM) of 94.9%, an activity at 10 µM (Aspergillus niger; Aspergillus niger, 0.5 h, germinated, RPMI-1640, 10.0 μM) of 86.2% and an activity at 15 µM (Aspergillus niger; Aspergillus niger, 0.5 h, germinated, RPMI-1640, 15.0 μM) of 93.9%. It also gave an activity at 20 µM (Aspergillus niger; Aspergillus niger, 0.5 h, germinated, RPMI-1640, 20.0 μM) of 85.4%, an activity at 1 µM (Aspergillus niger; Aspergillus niger, 0.5 h, germinating, 1% PDB, 1.0 μM) of 118% and an activity at 2.5 µM (Aspergillus niger; Aspergillus niger, 0.5 h, germinating, 1% PDB, 2.5 μM) of 89.8%. It also gave an activity at 5 µM (Aspergillus niger; Aspergillus niger, 0.5 h, germinating, 1% PDB, 5.0 μM) of 18.2%, an activity at 10 µM (Aspergillus niger; Aspergillus niger, 0.5 h, germinating, 1% PDB, 10.0 μM) of 12% and an activity at 15 µM (Aspergillus niger; Aspergillus niger, 0.5 h, germinating, 1% PDB, 15.0 μM) of 5.7%. The activity at 20 µM (Aspergillus niger; Aspergillus niger, 0.5 h, germinating, 1% PDB, 20.0 μM) was 3.9%, the activity at 1 µM (Aspergillus niger; Aspergillus niger, 0.5 h, nongerminated, 1% PDB, 1.0 μM) was 102% and the activity at 2.5 µM (Aspergillus niger; Aspergillus niger, 0.5 h, nongerminated, 1% PDB, 2.5 μM) was 96.6%. It also gave an activity at 5 µM (Aspergillus niger; Aspergillus niger, 0.5 h, nongerminated, 1% PDB, 5.0 μM) of 118%, an activity at 10 µM (Aspergillus niger; Aspergillus niger, 0.5 h, nongerminated, 1% PDB, 10.0 μM) of 92.7% and an activity at 15 µM (Aspergillus niger; Aspergillus niger, 0.5 h, nongerminated, 1% PDB, 15.0 μM) of 116%. It also gave an activity at 20 µM (Aspergillus niger; Aspergillus niger, 0.5 h, nongerminated, 1% PDB, 20.0 μM) of 64.4%, an activity at 5 µM (Aspergillus niger; Aspergillus niger, 0.5 h, nongerminated, RPMI-1640, 5.0 μM) of 76.8% and an activity at 10 µM (Aspergillus niger; Aspergillus niger, 0.5 h, nongerminated, RPMI-1640, 10.0 μM) of 87.7%. The activity at 15 µM (Aspergillus niger; Aspergillus niger, 0.5 h, nongerminated, RPMI-1640, 15.0 μM) was 83.8%, the activity at 20 µM (Aspergillus niger; Aspergillus niger, 0.5 h, nongerminated, RPMI-1640, 20.0 μM) was 104% and the IC95 (Aspergillus niger; Aspergillus niger, 0.5 h, read-out: LD95) was 15 µM and 18.6 µg/mL. The minimal effective concentration (Aspergillus niger; Aspergillus niger, 0.5 h, read-out: concentration achieving significant lethality) was 5 µM and 6.2 µg/mL, the “Mean No. of Colonies” value (Aspergillus niger; germinated, RPMI-1640, 5.0 μM) was 50.1 and the “Mean No. of Colonies” value (Aspergillus niger; germinated, RPMI-1640, 10.0 μM) was 45.5. The “Mean No. of Colonies” value (Aspergillus niger; germinated, RPMI-1640, 15.0 μM) was 49.6, the “Mean No. of Colonies” value (Aspergillus niger; germinated, RPMI-1640, 20.0 μM) was 45.1 and the “lethality to germinating conidia” value (Aspergillus niger; germinating conidia, RPMI-1640) was “no effect was observed”. For the same compound, the “Mean No. of Colonies” value (Aspergillus niger; germinating, 1% PDB, 1.0 μM) was 60.4, the “Mean No. of Colonies” value (Aspergillus niger; germinating, 1% PDB, 2.5 μM) was 45.8 and the “Mean No. of Colonies” value (Aspergillus niger; germinating, 1% PDB, 5.0 μM) was 9.3. The “Mean No. of Colonies” value (Aspergillus niger; germinating, 1% PDB, 10.0 μM) was 6.1, the “Mean No. of Colonies” value (Aspergillus niger; germinating, 1% PDB, 15.0 μM) was 2.9 and the “Mean No. of Colonies” value (Aspergillus niger; germinating, 1% PDB, 20.0 μM) was 2.0. For the same compound, the “viability of nongerminated conidia” value (Aspergillus niger; nongerminated conidia, either test medium) was “not affected”, the “Mean No. of Colonies” value (Aspergillus niger; nongerminated, 1% PDB, 1.0 μM) was 36.5 and the “Mean No. of Colonies” value (Aspergillus niger; nongerminated, 1% PDB, 2.5 μM) was 34.5. For the same compound, the “Mean No. of Colonies” value (Aspergillus niger; nongerminated, 1% PDB, 5.0 μM) was 42.3, the “Mean No. of Colonies” value (Aspergillus niger; nongerminated, 1% PDB, 10.0 μM) was 33.1 and the “Mean No. of Colonies” value (Aspergillus niger; nongerminated, 1% PDB, 15.0 μM) was 41.5. The “Mean No. of Colonies” value (Aspergillus niger; nongerminated, 1% PDB, 20.0 μM) was 23.0, the “Mean No. of Colonies” value (Aspergillus niger; nongerminated, RPMI-1640, 5.0 μM) was 37.5 and the “Mean No. of Colonies” value (Aspergillus niger; nongerminated, RPMI-1640, 10.0 μM) was 42.8. The “Mean No. of Colonies” value (Aspergillus niger; nongerminated, RPMI-1640, 15.0 μM) was 40.9, the “Mean No. of Colonies” value (Aspergillus niger; nongerminated, RPMI-1640, 20.0 μM) was 51.0 and the “lethality to mammalian cells” value [1] was “not lethal”. For the same compound, the “effectiveness compared with pentamidine” value (Pneumocystis carinii; 25 and 50 μg/ml (20.2 and 40.3 μM) vs pentamidine 10 μg/ml, 29 μM) was “as, or more effective, than pentamidine”, the IC50 (Pneumocystis carinii; Pneumocystis carinii) was 11.8 µg/mL and 9.5 µM and the activity at 10 µM (Pneumocystis carinii; Pneumocystis carinii, 24 h, read-out: Percent of Control Mean) was 43.1%. It also gave an activity at 2.5 µM (Pneumocystis carinii; Pneumocystis carinii, 24 h, Day 1, 3.2 μg/ml, 2.5 μM, read-out: Percent of Control Mean) of 94.7%, an activity at 5 µM (Pneumocystis carinii; Pneumocystis carinii, 24 h, Day 1, 6.3 μg/ml, 5 μM, read-out: Percent of Control Mean) of 70.1% and an activity at 20 µM (Pneumocystis carinii; Pneumocystis carinii, 24 h, Day 1, 25 μg/ml, 20 μM, read-out: Percent of Control Mean) of 18%. The activity at 40 µM (Pneumocystis carinii; Pneumocystis carinii, 24 h, Day 1, 50 μg/ml, 40 μM, read-out: Percent of Control Mean) was 10% and the activity at 80 µM (Pneumocystis carinii; Pneumocystis carinii, 24 h, Day 1, 100 μg/ml, 80 μM, read-out: Percent of Control Mean) was 3.1%.
